Data from ChEMBL document CHEMBL5608244, “Preclinical Evaluation of Dihydropyrazole-Cored Positron Emission Tomography (PET) Ligands for Imaging of Receptor-Interacting Serine/Threonine Protein Kinase 1 (RIPK1) in the Brain” (J Med Chem, 2024).

Key:
[1] = Retention time of the compound by HPLC method; assay type: physicochemical
[2] = Lipophilicity, logD of compound at pH 7.4 by shake flask method; assay type: physicochemical; settings: buffer
[3] = Drug uptake in cerebellum of ICR mouse brain at 0.5 to 10 uM incubated for 30 mins by Phosphor Imager analysis; assay type: ADME, tissue-based; settings: 0.5 h, dose 0.5-10 µM
[4] = Drug uptake in thalamus of ICR mouse brain assessed as reduction in radioactivity at 0.5 to 10 uM incubated for 30 mins in presence of 10 uM of 1-(5-(3-fluorophenyl)-4,5-dihydro-1H-pyrazol-1-yl)-2,2-dimethylpropan-1-one by Phosphor Imager analysis; assay type: ADME, tissue-based; design: scale not given: the % may be the effect or the level left; settings: 0.5 h, dose 0.5-10 µM
[5] = Drug uptake in thalamus of ICR mouse brain assessed as reduction in radioactivity at 0.5 to 10 uM incubated for 30 mins in presence of 1 uM of GSK'547 by Phosphor Imager analysis; assay type: ADME, tissue-based; design: scale not given: the % may be the effect or the level left; settings: 0.5 h, dose 0.5-10 µM
[6] = Drug uptake in thalamus of ICR mouse brain assessed as reduction in radioactivity incubated for 30 mins in presence of 1-(5-(3-fluorophenyl)-4,5-dihydro-1H-pyrazol-1-yl)-2,2-dimethylpropan-1-one by Phosphor Imager analysis; assay type: ADME, tissue-based; settings: 0.5 h, dose 0.5-10 µM
[7] = Drug uptake in thalamus of ICR mouse brain assessed as reduction in radioactivity incubated for 30 mins in presence of GSK'547 by Phosphor Imager analysis; assay type: ADME, tissue-based; settings: 0.5 h
[8] = Drug uptake in thalamus of ICR mouse brain assessed as reduction in radioactivity incubated for 30 mins in presence of 0.5 uM of 1-(5-(3-fluorophenyl)-4,5-dihydro-1H-pyrazol-1-yl)-2,2-dimethylpropan-1-one by Phosphor Imager analysis; assay type: ADME, tissue-based; design: scale not given: the % may be the effect or the level left; settings: 0.5 h
[9] = Biodistribution in ICR mouse brain at 0.74 MBq, iv measured after 2 mins by automatic gamma counter analysis; assay type: ADME, organism-based; settings: in vivo
[10] = Biodistribution in ICR mouse heart at 0.74 MBq, iv measured after 2 mins by automatic gamma counter analysis; assay type: ADME, organism-based; settings: in vivo
[11] = Biodistribution in ICR mouse spleen at 0.74 MBq, iv measured after 2 mins by automatic gamma counter analysis; assay type: ADME, organism-based; settings: in vivo
[12] = Biodistribution in ICR mouse lung at 0.74 MBq, iv measured after 2 mins by automatic gamma counter analysis; assay type: ADME, organism-based; settings: in vivo
[13] = Biodistribution in ICR mouse bone at 0.74 MBq, iv measured after 2 mins by automatic gamma counter analysis; assay type: ADME, organism-based, Bone element; settings: in vivo
[14] = Biodistribution in ICR mouse stomach at 0.74 MBq, iv measured after 2 mins by automatic gamma counter analysis; assay type: ADME, organism-based; settings: in vivo
[15] = Biodistribution in ICR mouse small intestine at 0.74 MBq, iv measured after 2 mins by automatic gamma counter analysis; assay type: ADME, organism-based; settings: in vivo
[16] = Biodistribution in ICR mouse brain at 0.74 MBq, iv measured after 10 mins by automatic gamma counter analysis; assay type: ADME, organism-based; settings: in vivo
[17] = Biodistribution in ICR mouse heart at 0.74 MBq, iv measured after 10 mins by automatic gamma counter analysis; assay type: ADME, organism-based; settings: in vivo
[18] = Biodistribution in ICR mouse liver at 0.74 MBq, iv measured after 10 mins by automatic gamma counter analysis; assay type: ADME, organism-based; settings: in vivo
[19] = Biodistribution in ICR mouse spleen at 0.74 MBq, iv measured after 10 mins by automatic gamma counter analysis; assay type: ADME, organism-based; settings: in vivo
[20] = Biodistribution in ICR mouse kidneys at 0.74 MBq, iv measured after 10 mins by automatic gamma counter analysis; assay type: ADME, organism-based, Kidney; settings: in vivo
[21] = Biodistribution in ICR mouse pancreas at 0.74 MBq, iv measured after 10 mins by automatic gamma counter analysis; assay type: ADME, organism-based; settings: in vivo
[22] = Biodistribution in ICR mouse muscle at 0.74 MBq, iv measured after 10 mins by automatic gamma counter analysis; assay type: ADME, organism-based, Muscle tissue; settings: in vivo
[23] = Biodistribution in ICR mouse bone at 0.74 MBq, iv measured after 10 mins by automatic gamma counter analysis; assay type: ADME, organism-based, Bone element; settings: in vivo
[24] = Biodistribution in ICR mouse stomach at 0.74 MBq, iv measured after 10 mins by automatic gamma counter analysis; assay type: ADME, organism-based; settings: in vivo
[25] = Biodistribution in ICR mouse blood at 0.74 MBq, iv measured after 30 mins by automatic gamma counter analysis; assay type: ADME, organism-based; settings: in vivo, 0.5 h
[26] = Biodistribution in ICR mouse liver at 0.74 MBq, iv measured after 30 mins by automatic gamma counter analysis; assay type: ADME, organism-based; settings: in vivo, 0.5 h
[27] = Biodistribution in ICR mouse spleen at 0.74 MBq, iv measured after 30 mins by automatic gamma counter analysis; assay type: ADME, organism-based; settings: in vivo, 0.5 h
[28] = Biodistribution in ICR mouse lung at 0.74 MBq, iv measured after 30 mins by automatic gamma counter analysis; assay type: ADME, organism-based; settings: in vivo, 0.5 h
[29] = Biodistribution in ICR mouse small intestine at 0.74 MBq, iv measured after 30 mins by automatic gamma counter analysis; assay type: ADME, organism-based; settings: in vivo, 0.5 h
[30] = Biodistribution in ICR mouse brain at 0.74 MBq, iv measured after 60 mins by automatic gamma counter analysis; assay type: ADME, organism-based; settings: in vivo, 1 h
[31] = Biodistribution in ICR mouse liver at 0.74 MBq, iv measured after 60 mins by automatic gamma counter analysis; assay type: ADME, organism-based; settings: in vivo, 1 h
[32] = Biodistribution in ICR mouse spleen at 0.74 MBq, iv measured after 60 mins by automatic gamma counter analysis; assay type: ADME, organism-based; settings: in vivo, 1 h
[33] = Biodistribution in ICR mouse lung at 0.74 MBq, iv measured after 60 mins by automatic gamma counter analysis; assay type: ADME, organism-based; settings: in vivo, 1 h
[34] = Biodistribution in ICR mouse kidneys at 0.74 MBq, iv measured after 60 mins by automatic gamma counter analysis; assay type: ADME, organism-based, Kidney; settings: in vivo, 1 h
[35] = Biodistribution in ICR mouse bone at 0.74 MBq, iv measured after 60 mins by automatic gamma counter analysis; assay type: ADME, organism-based, Bone element; settings: in vivo, 1 h
[36] = Biodistribution in ICR mouse small intestine at 0.74 MBq, iv measured after 60 mins by automatic gamma counter analysis; assay type: ADME, organism-based; settings: in vivo, 1 h
[37] = Biodistribution in ICR mouse assessed as drug accumulation in lungs at 0.74 MBq, iv pretreated with GSK'547 followed by compound administration measured after 10 mins by automatic gamma counter analysis; assay type: ADME, organism-based; settings: in vivo
[38] = Drug metabolism in mouse plasma assessed as parent compound remaining at 13.5 MBq, iv measured after 30 mins by HPLC analysis; assay type: ADME, organism-based; settings: read-out: Activity
[39] = Drug metabolism in mouse liver assessed as parent compound remaining at 13.5 MBq, iv measured after 30 mins by HPLC analysis; assay type: ADME, organism-based; settings: read-out: Activity
[40] = Drug uptake in Sprague-Dawley rat bone at 10 to 17.6 MBq, iv treated upto 30 mins by PET analysis; assay type: ADME, organism-based, Bone element; settings: in vivo, 0.5 h, dose 10-17.6 MBq
[41] = Drug uptake in Sprague-Dawley rat brain assessed as reduction in radioactivity at 10 to 17.6 MBq, iv pretreated with GSK'547 followed by compound administration measured upto 30 mins by PET analysis; assay type: ADME, organism-based; design: scale not given: the % may be the effect or the level left; settings: in vivo, 0.5 h, dose 10-17.6 MBq
[42] = Drug uptake in Sprague-Dawley rat brain assessed as reduction in radioactivity at 10 to 17.6 MBq, iv pretreated with 1-(5-(3-fluorophenyl)-4,5-dihydro-1H-pyrazol-1-yl)-2,2-dimethylpropan-1-one followed by compound administration measured upto 30 mins by PET analysis; assay type: ADME, organism-based; design: scale not given: the % may be the effect or the level left; settings: in vivo, 0.5 h, dose 10-17.6 MBq
[43] = Drug uptake in brain of Sprague-Dawley rat at 9.9 to 14.8 MBq, iv measured for 5 mins by PET analysis; assay type: ADME, organism-based; settings: in vivo, dose 9.9-14.8 MBq

Retention_time [1]: 21.84 min
logD [2]: 2.25
Drug uptake [3]: Active
Activity [4]: ~ 26%
Activity [5]: ~ 18%
Activity [6]: Dose-Dependent Effect
Activity [7]: Dose-Dependent Effect
Activity [8]: ~ 5%
Drug uptake [9]: 4.89 % ID/g
Drug uptake [10]: 6.8 % ID/g
Drug uptake [11]: 3.17 % ID/g
Drug uptake [12]: 16.41 % ID/g
Drug uptake [13]: 3.3 % ID/g
Drug uptake [14]: 0.9 % ID/g
Drug uptake [15]: 5.07 % ID/g
Drug uptake [16]: 1.36 % ID/g
Drug uptake [17]: 3.27 % ID/g
Drug uptake [18]: 11.39 % ID/g
Drug uptake [19]: 1.99 % ID/g
Drug uptake [20]: 18.03 % ID/g
Drug uptake [21]: 3.07 % ID/g
Drug uptake [22]: 2.48 % ID/g
Drug uptake [23]: 4.17 % ID/g
Drug uptake [24]: 0.64 % ID/g
Drug uptake [25]: 2.96 % ID/g
Drug uptake [26]: 7.56 % ID/g
Drug uptake [27]: 0.91 % ID/g
Drug uptake [28]: 2.58 % ID/g
Drug uptake [29]: 22.56 % ID/g
Drug uptake [30]: 0.21 % ID/g
Drug uptake [31]: 2.69 % ID/g
Drug uptake [32]: 0.41 % ID/g
Drug uptake [33]: 1.03 % ID/g
Drug uptake [34]: 3.95 % ID/g
Drug uptake [35]: 5.69 % ID/g
Drug uptake [36]: 30.6 % ID/g
Drug uptake [37]: 15.6%
remaining at 0.5 h [38]: 1.2%
remaining at 0.5 h [39]: 1.5%
Drug uptake [40]: Not Active
Activity [41]: 25.9%
Activity [42]: 21.7%
Drug uptake [43]: Active
Structure (SMILES): CC(C)(C)C(=O)N1N=CCC1c1cccc([18F])c1 (stereo not drawn)
